Results on 20 compounds are retold here after patent US12565490B2, “Inhibitors of Receptor Interacting Protein Kinase I for the treatment of disease” (Board of Regents, The University of Texas System, priority 2020, dated 2026).

Each structure is given as a SMILES string.

The test has as its system human monocytic cell line U937. The test is described as follows: Human U937 cellular necroptosis assay. It counts as cell-based. Conditions: U-937; U937 cells stimulated with 25 ng/mL human TNFalpha and 25 μM z-VAD-FMK; 22 hr; viability by Cell Titer-Glo 2.0; read-out: hU937 IC50. Put shortly: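 U937 cells (5000/well) driven to necroptosis by 25 ng/mL human TNFalpha plus 25 μM z-VAD-FMK alongside 1:3-diluted compounds, 22 hr at 37° C, 5% CO2. Viability by CellTiter-Glo luminescence; IC50 from four-parameter logistic fit.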
As for `Cc1ccc(-c2nc(C(=O)N[C@H]3COc4cc(F)cnc4N(C)C3=O)ncc2Cl)cc1F` [Example 78, (S)-5-chloro-4-(3-fluoro-4-methylphenyl)-N-(8-fluoro-5-methyl-4-oxo-2,3,4,5-tetrahydropyrido[3,2-b]-[1,4]oxazepin-3-yl)pyrimidine-2-carboxamide], the IC50 is 8.3 nM.
The result for `Cc1cc(-c2nc(C(=O)N[C@H]3COc4cc(F)cnc4N(C)C3=O)ncc2Cl)ccc1F` [Example 79, (S)-5-chloro-4-(4-fluoro-3-methylphenyl)-N-(8-fluoro-5-methyl-4-oxo-2,3,4,5-tetrahydropyrido[3,2-b]-[1,4]oxazepin-3-yl)pyrimidine-2-carboxamide] reads 18.9 nM; that for `CN1C(=O)[C@@H](NC(=O)c2ncc(Cl)c(-c3ccccc3Cl)n2)COc2cc(F)cnc21` [Example 80, (S)-5-chloro-4-(2-chlorophenyl)-N-(8-fluoro-5-methyl-4-oxo-2,3,4,5-tetrahydropyrido[3,2-b]-[1,4]oxazepin-3-yl)pyrimidine-2-carboxamide], 15.2 nM; that for `CN1C(=O)[C@@H](NC(=O)c2ncc(Cl)c(-c3cccc(Cl)c3)n2)COc2cc(F)cnc21` [Example 81, (S)-5-chloro-4-(3-chlorophenyl)-N-(8-fluoro-5-methyl-4-oxo-2,3,4,5-tetrahydropyrido[3,2-b]-[1,4]oxazepin-3-yl)pyrimidine-2-carboxamide], 29.6 nM.
Under `CN1C(=O)[C@@H](NC(=O)c2ncc(Cl)c(-c3ccc(Cl)cc3)n2)COc2cc(F)cnc21` [Example 82, (S)-5-chloro-4-(4-chlorophenyl)-N-(8-fluoro-5-methyl-4-oxo-2,3,4,5-tetrahydropyrido[3,2-b]-[1,4]oxazepin-3-yl)pyrimidine-2-carboxamide] stands 13.6 nM.
With `Cc1cccc(-c2nc(C(=O)N[C@H]3COc4cc(F)cnc4N(C)C3=O)ncc2Cl)c1` [Example 83, (S)-5-chloro-N-(8-fluoro-5-methyl-4-oxo-2,3,4,5-tetrahydropyrido[3,2-b]-[1,4]oxazepin-3-yl)-4-(m-tolyl)-pyrimidine-2-carboxamide], the IC50 was 15.1 nM.
The result for `CN1C(=O)[C@@H](NC(=O)c2ncc(Cl)c(-c3cccc(C#N)c3)n2)COc2cc(F)cnc21` [Example 84, (S)-5-chloro-4-(3-cyanophenyl)-N-(8-fluoro-5-methyl-4-oxo-2,3,4,5-tetrahydropyrido[3,2-b]-[1,4]oxazepin-3-yl)pyrimidine-2-carboxamide] reads 33.5 nM; that for `CN1C(=O)[C@@H](NC(=O)c2ncc(Cl)c(-c3ncccc3F)n2)COc2cc(F)cnc21` [Example 85, (S)-5-chloro-N-(8-fluoro-5-methyl-4-oxo-2,3,4,5-tetrahydropyrido[3,2-b]-[1,4]oxazepin-3-yl)-4-(3-fluoropyridin-2-yl)pyrimidine-2-carboxamide], 611 nM.
Consider `Cc1cnc(C(=O)N[C@H]2COc3cc(F)cnc3N(C)C2=O)nc1C12CCC(CC1)CC2` [Example 86, (S)-4-(bicyclo[2.2.2]octan-1-yl)-N-(8-fluoro-5-methyl-4-oxo-2,3,4,5-tetrahydro-pyrido[3,2-b][1,4]oxazepin-3-yl)-5-methylpyrimidine-2-carboxamide], for which the IC50 turned out to be 67.5 nM.
Under `Cc1cnc(C(=O)N[C@H]2COc3cc(F)cnc3N(C)C2=O)nc1C1CCOCC1` [Example 87, (S)-N-(8-fluoro-5-methyl-4-oxo-2,3,4,5-tetrahydro-pyrido[3,2-b][1,4]oxazepin-3-yl)-5-methyl-4-(tetrahydro-2H-pyran-4-yl)pyrimidine-2-carboxamide] stands 157 nM; under `Cc1cnc(C(=O)N[C@H]2COc3cc(F)cnc3N(C)C2=O)nc1-c1ccccc1F` [Example 88, (S)-N-(8-fluoro-5-methyl-4-oxo-2,3,4,5-tetrahydro-pyrido[3,2-b][1,4]oxazepin-3-yl)-4-(2-fluorophenyl)-5-methylpyrimidine-2-carboxamide], 13.7 nM.
Regarding `Cc1cc(F)ccc1-c1ccnc(C(=O)N[C@H]2COc3cc(Cl)cnc3N(C)C2=O)n1` [Example 89, (S)-N-(8-chloro-5-methyl-4-oxo-2,3,4,5-tetrahydro-pyrido[3,2-b][1,4]oxazepin-3-yl)-4-(4-fluoro-2-methylphenyl)pyrimidine-2-carboxamide], the IC50 worked out at 136 nM.
Under `Cc1cc(F)cc(F)c1-c1ccnc(C(=O)N[C@H]2COc3cc(Cl)cnc3N(C)C2=O)n1` [Example 90, (S)-N-(8-chloro-5-methyl-4-oxo-2,3,4,5-tetrahydro-pyrido[3,2-b][1,4]oxazepin-3-yl)-4-(2,4-difluoro-6-methylphenyl)pyrimidine-2-carboxamide] stands 83.5 nM; under `CN1C(=O)[C@@H](NC(=O)c2ncc(F)c(-c3ccc(F)cc3)n2)COc2cc(Cl)cnc21` [Example 91, (S)-N-(8-chloro-5-methyl-4-oxo-2,3,4,5-tetrahydro-pyrido[3,2-b][1,4]oxazepin-3-yl)-5-fluoro-4-(4-fluorophenyl)-pyrimidine-2-carboxamide], 33.2 nM; under `Cc1cc(F)ccc1-c1nc(C(=O)N[C@H]2COc3cc(Cl)cnc3N(C)C2=O)ncc1F` [Example 92, (S)-N-(8-chloro-5-methyl-4-oxo-2,3,4,5-tetrahydro-pyrido[3,2-b][1,4]oxazepin-3-yl)-5-fluoro-4-(4-fluoro-2-methylphenyl)pyrimidine-2-carboxamide], 15.2 nM.
As for `CN1C(=O)[C@@H](NC(=O)c2ncc(Cl)c(-c3ccccc3)n2)COc2cc(Cl)cnc21` [Example 93, (S)-5-chloro-N-(8-chloro-5-methyl-4-oxo-2,3,4,5-tetrahydropyrido[3,2-b]-[1,4]oxazepin-3-yl)-4-phenylpyrimidine-2-carboxamide], the IC50 was found to be 6.23 nM.
For the compound `CN1C(=O)[C@@H](NC(=O)c2ncc(Cl)c(-c3ccccc3F)n2)COc2cc(Cl)cnc21` [Example 94, (S)-5-chloro-N-(8-chloro-5-methyl-4-oxo-2,3,4,5-tetrahydropyrido[3,2-b]-[1,4]oxazepin-3-yl)-4-(2-fluorophenyl)pyrimidine-2-carboxamide], the IC50 is 13.5 nM.
Take `CN1C(=O)[C@@H](NC(=O)c2ncc(Cl)c(-c3cccc(F)c3F)n2)COc2cc(Cl)cnc21` [Example 95, (S)-5-chloro-N-(8-chloro-5-methyl-4-oxo-2,3,4,5-tetrahydropyrido[3,2-b]-[1,4]oxazepin-3-yl)-4-(2,3-difluorophenyl)pyrimidine-2-carboxamide]: the IC50 was 15.2 nM.
`CN1C(=O)[C@@H](NC(=O)c2ncc(Cl)c(-c3ccc(F)cc3F)n2)COc2cc(Cl)cnc21` [Example 96, (S)-5-chloro-N-(8-chloro-5-methyl-4-oxo-2,3,4,5-tetrahydropyrido[3,2-b]-[1,4]oxazepin-3-yl)-4-(2,4-difluorophenyl)pyrimidine-2-carboxamide]: the IC50 was found to be 8.33 nM.
The result for `CN1C(=O)[C@@H](NC(=O)c2ncc(Cl)c(-c3ccc(F)c(F)c3)n2)COc2cc(Cl)cnc21` [Example 97, (S)-5-chloro-N-(8-chloro-5-methyl-4-oxo-2,3,4,5-tetrahydropyrido[3,2-b]-[1,4]oxazepin-3-yl)-4-(3,4-difluorophenyl)pyrimidine-2-carboxamide] reads 11 nM.
